# Test results: patent US20120065228A1, “COMPOSITIONS AND METHODS FOR TREATING, CONTROLLING, REDUCING, OR AMELIORATING OCULAR INFLAMMATORY WITH LOWER RISK OF INCREASED INTRAOCULAR PRESSURE” (priority 2007, published 2012)
# Values joined by “and” are separate entries in the source; they are usually repeats but may differ in a detail not shown here. Identical values can stand only once. Like-named read-outs stand apart in the source and are kept apart here.
# How the values were obtained:
# [1] = system: New Zealand White rabbits; type: in vivo; details: for Rabbits that died or were euthanized between Days 11 and 33: right eye four times daily, Days 1-31; for Mortality (animals found dead or euthanized prior to study completion/number of animals in group): 50 μL topical right eye 4 x daily, to Day 33; for Mortality rate: right eye four times daily up to 31 days, dexamethasone 0.05 mg/dose, BOL-303242-X per dose level (0.05, 0.25, 0.5 mg/dose)
# Experimental: On Days 1-31, animals received daily topical doses of the appropriate test article into the right eye. Animals were dosed four times per day, with doses administered 2 hours apart. Doses were administered using a calibrated 50-μL pipette. The eyelids were held close for 10 seconds immediately following dosing. The time of each dose administration was recorded.
# Animals determined to be moribund were euthanized with an intravenous injection of commercial euthanasia solution.
# monkey TM cells = experiment: Cell metabolic activity (resazurin reduction) assay in monkey TM cells; type: cell-based, rhesus monkeys (Macaca mulatta); details: at the conclusion of the treatment periods
# Experimental: A modification of previously described methods^40 was employed to evaluate cell metabolic activity, an index of cell viability. After collection of CM samples, cells were briefly rinsed in modified Hanks balanced salt solution containing Ca^++ and Mg^++ (“MHBSS”), and then 0.0025% (w/v) resazurin (Sigma) in MHBSS was added to sample wells. Plates were incubated (37° C., 5% CO2, 95% humidity) for 90 minutes, after which fluorescence (Excitation 560 nm, Emission 590 nm) was read (Victor 3V Multilabel Counter, Wallac, Turku, Finland). As a positive control for decreased cellular metabolic reduction of resazurin, in each plate an additional well of vehicle control-treated cells was preincubated with 0.06% hydrogen peroxide (Fisher, Atlanta, Ga.) in MHBSS.
# Myeloperoxidase (MPO) = Myeloperoxidase (MPO) activity in iris-ciliary body, rabbit paracentesis model; type: in vivo; details: for MPO Unit/g: iris-ciliary body samples collected after the second paracentesis, individual eyes (DX/SX); for MPO activity in iris-ciliary body, Mean: after the second paracentesis
# Experimental: Each rabbit was placed in a restraint device and tagged with the alphanumeric code. The formulations were instilled (50 μl) into the conjunctival sac of both eyes 180, 120, 90 and 30 min before the first paracentesis; then 15, 30, 90 min after the first paracentesis. To perform the first paracentesis the animals were anaesthetized by intravenous injection of 5 mg/kg Zoletil® (Virbac; 2.5 mg/kg tiletamine HCl and 2.5 mg/kg zolazepam HCl) and one drop of local anesthetic (Novesina®, Novartis) was administered to the eye. Anterior chamber paracentesis was performed with a 26 G needle attached to a tuberculin syringe; the needle was introduced into the anterior chamber through the cornea, taking care not to damage the tissues. Two hours after the ® first paracentesis, the animals were sacrificed with 0.4 ml Tanax® (Intervet International B.V.) and the second paracentesis was performed. About 100 μl of aqueous humor were removed at the second paracentesis. Aqueous humor was immediately split in four aliquots and stored at −80° C. until analysis. Then both eyes were enucleated and the iris-ciliary body was carefully excised, placed in polypropylene tubes, and stored at −80° C. until analysis.
# The activity of MPO was measured as previously described by Williams et al. The iris-ciliary bodies were carefully dried, weighed and immersed in 1 ml of hexa-decyl-trimethyl-ammonium bromide solution. Then, the samples were sonicated for 10 sec on ice by a ultrasound homogenizer (HD 2070, Bandelin electronic), freeze-thawed three times, sonicated for 10 sec and centrifuged at 14,000 g for 10 min to remove cellular debris. An aliquot of the supernatant (40-200 μl) was diluted to 3 ml with the o-dianisidine 2HCl/H2O2 solution. The change in absorbance at 460 nm was continuously monitored for 5 min by a spectrophotometer (UV/Vis Spectrometer Lambda EZ 201; Perkin Elmer). The slope of the line (Δ/min) was determined for each sample and used to calculate the number of units of MPO in the tissue as follows:
# were ε=11.3 mM^−1. Values were expressed as units of MPO/g of tissue.
# Pupillary diameter, PGE2, protein, PMN, and MPO were expressed as mean±SEM. Statistical analysis was performed using one way ANOVA followed by a Newman-Keuls post hoc test. Clinical score was expressed as % of eyes and the statistical analysis was performed using Kruskal-Wallis followed by a Dunn post hoc test. P<0.05 was considered statistically significant in both cases. Prism 4 software (GraphPad Software, Inc.) was used for the analysis and graphs.
# myocilin mRNA = experiment: Myocilin mRNA expression in monkey TM cells (qRT-PCR); type: cell-based, rhesus monkeys (Macaca mulatta); details: for EC50: Macaca mulatta, cultured monkey TM cells, weighted average, two dose-response studies each using two TM cell strains, read-out: EC50 ± SE, expression of myocilin mRNA
# Experimental: For each study, up to nine TM cell strains, each derived from an individual monkey, were tested separately. Cells were thawed and seeded into 12- or 48-well clusters (Falcon, BD Biosciences; 150,000 and 30,000 cells/well, respectively) in proliferation medium. When cells were 75% to 90% confluent proliferation medium was replaced by a 5:4 mixture of HESFM and Dulbecco's MEM, respectively, supplemented with 10% FBS, with added taurine, ascorbic acid phosphate, glutathione, and antibiotic as for proliferation medium (above), and with 2.72 g/L glucose and 1.72 g/L fructose. At confluence, the medium was changed to Dulbecco's MEM, containing 10% FBS^40, ascorbic acid phosphate, antibiotic, 2.72 g/L glucose and 1.72 g/L fructose. Cells were maintained as stable, confluent monolayers in this latter medium for 4 to 7 days before experimental treatments commenced.
# After quantification of purified total RNA (Quant-iT RNA Assay kit, Molecular Probes, Eugene, Oreg.), equivalent amounts of this RNA were apportioned to generate first-strand cDNAs for each treatment sample, using random primers, (Affinity Script, Stratagene, La Jolla, Calif.). Oligonucleotide myocilin primers, designed based on the cynomolgus MYOC gene, and fluorescent Taqman probe (Applied Biosystems, Foster City, Calif.) were used for PCR amplification. Equal amounts of total RNA-equivalent mass (approximate range […]) reactant cDNA were added to the PCR Master Mix (Stratagene) and myocilin primers/Taqman probe. Amplification was performed in a thermocycler (Mx3005P, Stratagene), with an initial denaturation step at 95° C. for 10 min, followed by 40 cycles of 95° C. for 15 sec and 60° C. for 1 min for extension. Every run included standard controls (i.e., either without reverse transcriptase or lacking template). Relative quantities of myocilin mRNA abundance were determined using differences in threshold cycles (“Ct”) between vehicle control and drug treatments. Each sample was analyzed in triplicate wells, and the corresponding values averaged for further quantitative analysis. Myocilin mRNA abundance, expressed in proportion to vehicle control-treated samples, was calculated using the Mx3005P software.
# Data underwent Box-Cox transformations for one- or two-way analysis of variance (ANOVA), followed by the Tukey-Kramer test, using JMP software (SAS, Cary, N.C.). The specific transformations used for analyses are mentioned in the figure legends. For each set of triplicate samples from the individual monkey TM cell strains tested, Western blot densitometry values for myocilin protein detected in CM (as geometric means), and relative abundance of myocilin mRNA (as geometric means), were plotted as a function of drug concentrations. P-values less than 0.05 were considered statistically significant. […]
# [2] = 0.05 mg/dose (0.1% dexamethasone suspension; 1 mg/g BOL-303242-X suspension)
smiles,measurement,setting,value
Cc1ccc2c(NCC(O)(CC(C)(C)c3cc(F)cc4c3OCC4)C(F)(F)F)cccc2n1 (stereo not drawn) [BOL-303242-X],Rabbits that died or were euthanized between Days 11 and 33,[1]; [2],one of ten
same,Mortality (animals found dead or euthanized prior to study completion/number of animals in group),"[1]; 1 mg/g, 0.05 mg/dose",1/10^(6)
same,Day of Death (day euthanized or found dead),"[1]; 5 mg/g BOL-303242-X ([…]) topical 4 x daily, individual rabbits, Group C",33
same,Rabbits that died or were euthanized between Days 11 and 33,[1]; 5 mg/g suspension ([…]),two of ten
same,Mortality (animals found dead or euthanized prior to study completion/number of animals in group),"[1]; 5 mg/g, […]",2/10^(5)
same,Day of Death (day euthanized or found dead),"[1]; 10 mg/g BOL-303242-X (0.5 mg/dose) topical 4 x daily, individual rabbit, Group B",11
same,Rabbits that died or were euthanized between Days 11 and 33,[1]; 10 mg/g suspension (0.5 mg/dose),one of ten
same,Morbidity observation in surviving rabbits,"[1]; 10 mg/g suspension (0.5 mg/dose), one surviving rabbit (Group B, No. 3048)",diarrhea on Day 18
same,Mortality (animals found dead or euthanized prior to study completion/number of animals in group),"[1]; 10 mg/g, 0.5 mg/dose",1/10^(4)
same,Mortality rate,[1],1-2 deaths per 10 rabbits
same,Cell viability (chemical reduction of resazurin) compared to vehicle controls,monkey TM cells,nor did any drug treatments result in a loss of cell viability
same,MPO Unit/g,"Myeloperoxidase (MPO); 0.1% BOL, listed as BOL",1.04 Unit/g and 1.00 Unit/g and 1.14 Unit/g and 1.06 Unit/g and 1.22 Unit/g and 0.61 Unit/g and 1.05 Unit/g and 0.65 Unit/g
same,"MPO activity in iris-ciliary body, Mean",Myeloperoxidase (MPO); 0.1% topical formulation,0.971 MPO Unit/g
same,MPO Unit/g,"Myeloperoxidase (MPO); 0.5% BOL, listed as BOL",0.85 Unit/g and 0.93 Unit/g and 0.79 Unit/g and 1.03 Unit/g and 0.75 Unit/g and 0.74 Unit/g and 0.54 Unit/g and 0.58 Unit/g
same,"MPO activity in iris-ciliary body, Mean",Myeloperoxidase (MPO); 0.5% topical formulation,0.775 MPO Unit/g
same,MPO Unit/g,"Myeloperoxidase (MPO); 1% BOL, listed as BOL",0.66 Unit/g and 0.68 Unit/g and 0.49 Unit/g and 0.40 Unit/g and 0.34 Unit/g and 1.02 Unit/g and 0.31 Unit/g and 0.43 Unit/g
same,"MPO activity in iris-ciliary body, Mean",Myeloperoxidase (MPO); 1% topical formulation,0.542 MPO Unit/g
same,"Maximal efficacy for myocilin mRNA expression, relative to DEX","myocilin mRNA; 300 nM, monkey TM cells",approximately 67%
same,EC50,myocilin mRNA,20.8 ± 2.74 nM
same,Myocilin mRNA abundance compared with DEX,"myocilin mRNA; all doses, monkey TM cells",significantly lower mRNA abundance values
"C[C@@H]1C[C@H]2[C@@H]3CCC4=CC(=O)C=C[C@]4(C)[C@@]3(F)[C@@H](O)C[C@]2(C)[C@@]1(O)C(=O)CO [dexamethasone, reference compound]",Rabbits that died or were euthanized between Days 11 and 33,[1]; [2],Six of ten
same,Mortality (animals found dead or euthanized prior to study completion/number of animals in group),"[1]; 0.1% Dexamethasone (Maxidex), 0.05 mg/dose",6/10^(3)
same,Mortality rate,[1],6 deaths per 10 rabbits
same,Cell viability (chemical reduction of resazurin) compared to vehicle controls,monkey TM cells,nor did any drug treatments result in a loss of cell viability
same,MPO Unit/g,"Myeloperoxidase (MPO); 0.1% Dex, listed as Dex",0.71 Unit/g and 0.60 Unit/g and 1.32 Unit/g and 0.48 Unit/g (2×) and 0.39 Unit/g and 0.45 Unit/g and 0.51 Unit/g
same,"MPO activity in iris-ciliary body, Mean",Myeloperoxidase (MPO); 0.1% topical formulation,0.618 MPO Unit/g
same,EC50,myocilin mRNA,14.7 ± 1.27 nM
